In PMC8709211, “Improving Membrane Activity and Cargo Delivery Efficacy of a Cell-Penetrating Peptide by Loading with Carboranes” (Pharmaceutics, 2021):

What was measured:
human red blood cells = assay: Hemolysis assay; assay type: cell-based; conditions: human RBCs 5% (v/v in PBS), 37 °C, up to 25 µM peptide, absorption at 560 nm, normalized to Triton-x-100 control, triplicate, n = 2
Procedure: Human red blood cells were washed five times with PBS (4 °C, 3000× g, 5 min) and diluted to 5% (v/v in PBS). In total, 100 µL of this solution were transferred into a fresh 96-well plate. In total, 50 µL of peptide solution were added and gently resuspended. Red blood cells were incubated for either 1 or 24 h at 37 °C and 5% CO2, respectively. In total, 50 µL of 10% Triton-x-100 were added 10 min prior to the end of the incubation time and served as a positive control. After incubation, cells were centrifuged (r.t., 2500× g, 3 min). The supernatant was carefully transferred into a fresh 96-well plate and the absorption at 560 nm was measured on a Tecan infinite M200 plate reader (Tecan Group AG, Männedorf, Switzerland). The measured absorption referred to the hemoglobin concentration.
Next, we incubated human red blood cells (RBCs) with different concentrations of CB-sC18 conjugates at 37 °C for 1 or 24 h, respectively. Since their cell membranes are mainly composed of neutral lipids, RBCs serve as an excellent biological model for the lytic activity of a peptide. […] For sC18, this agreed with the detected low activity when in contact with zwitterionic LUVs. […] The same activity profile was observed when incubating peptide conjugates with RBCs for only one hour (Figure S30), whereas the effects started at concentrations higher than 5 µM. […]

HeLa cells [1] = assay: Transfection with mCherry plasmid; assay type: cell-based; conditions: peptide:plasmid 3:1 (250 ng plasmid), 1 µM peptide, 2 h, inspected 72 h after transfection, fluorescence microscopy
Procedure: HeLa cells were seeded into 8-well plates (ibidi, Gräfelfing, Germany, 8000 cells per well, respectively) and grown to 30–40% confluency. Peptides and mCherry plasmid were co-incubated for 1 h at 37 °C at a ratio of 3:1 in serum-free medium (mCherry plasmid: 250 ng). Afterwards, the medium was removed, and the solution was added to the cells. Additional serum-free medium was added to ensure a final peptide concentration of 1 µM. Cells were incubated for 2 h with the peptides and peptide/plasmid solution at 37 °C, respectively. As a positive control, Lipofectamine 2000 (Invitrogen, Thermo Scientific, Waltham, MA, USA) was used and as a negative control, cells were treated with plasmid only. Afterwards, a washout was performed, and cells were washed once with 150 µL of serum-free medium. In total, 300 µL of medium with serum were added and cells were grown for 72 h at 37 °C. Ten minutes prior to microscopic analysis, 0.6 µL of Hoechst33342 were added. Then, cells were washed twice with 150 µL of serum-free medium. In total, 300 µL of serum-supplemented medium were added and cells analyzed using a BZ-X800E microscope (Keyence, Osaka, Japan).

HeLa cells [2] = assay: Cellular uptake by flow cytometry; assay type: cell-based; conditions: 1 µM CF-labeled peptide, serum-free medium, 37 °C; for Cellular uptake into HeLa cells, 30 min: triplicate, n = 3
Procedure: HeLa cells were seeded onto 24-well plates (Sarstedt, Nümbrecht, Germany, 100,000 cells per well, respectively). After reaching 80–90% confluency, medium was removed, and cells were incubated with 1 µM CF-labeled peptide solution in serum-free medium for either 30 min or 2 h at 37 °C. The peptide solution was removed, cells were washed twice with PBS, and trypsinized for 5 min. Detached cells were resuspended in full medium (phenol red free) and afterwards analyzed using a guava easycyte HT flow cytometer (Merck, Darmstadt, Germany).

HeLa cells [3] = assay: Cell viability assay (resazurin); assay type: cell-based; conditions: 37 °C, serum-free medium, 125 nM–100 µM, relative to untreated cells
Procedure: In total, 17.000 HeLa cells per well were seeded onto 96-well plates (Sarstedt, Nümbrecht, Germany). After confluency of 80–90% was reached, the growth medium was removed, and cells were incubated with 100 µL of peptide solution of different concentrations (125 nM–100 μM in serum-free medium) for 24 h at 37 °C. For a positive control, cells were treated with 70% EtOH for 10 min. Cells were washed with serum-free medium and incubated with 10% (v/v) resazurin (Sigma-Aldrich, Merck group: Darmstadt, Germany) in serum-free medium for 1.5 h at 37 °C. Cell viability was determined by measurement of the resorufin product at 595 nm (λex = 550 nm) on a Tecan infinite M200 plate reader (Tecan Group AG, Männedorf, Switzerland). Viability was calculated from the fluorescence values of treated cells in relation to untreated cells.

HeLa cells [4] = assay: Proliferation assay, co-incubation with Daunorubicin; assay type: cell-based; conditions: 2 h, washout, 72 h growth, resazurin; for Effect on cytotoxicity of Dau (co-incubation): 1 µM peptide with 100 nM or 1 µM Daunorubicin
Procedure: In total, 3000 HeLa cells per well were seeded onto 96-well plates (Sarstedt, Nümbrecht, Germany). When a confluency of 30–40% was reached, medium was removed and cells were incubated with peptides and Daunorubicin at different concentrations (1 µM peptide concentration and 100 nM or 1 µM Daunorubicin in serum-free medium) for 2 h at 37 °C. Afterwards, a washout was performed, and cells were washed once with 100 µL of serum-free medium. Then, 200 µL of medium with serum were added and cells were grown for 72 h at 37 °C. As a positive control, cells were treated with 70% EtOH for 10 min. Afterwards, cells were covered with 10% (v/v) resazurin (Sigma-Aldrich, Merck group: Darmstadt, Germany) in serum-free medium for 1.5 h at 37 °C. The cell viability of treated cells was determined relative to that of untreated cells by measurement of the resorufin product at 595 nm (λex = 550 nm) on a Tecan infinite M200 plate reader (Tecan Group AG, Männedorf, Switzerland). Viability was calculated from the fluorescence values of treated cells in relation to untreated cells.

[5] = Circular dichroism spectroscopy (alpha-helical content, R-value); assay type: physicochemical; conditions: for % of alpha helix, 50% TFE / % of alpha helix, Phosphate Buffer: CD, calculated per ref 31; for % of alpha helix, 50% TFE: 20 µM peptide in 10 mM phosphate buffer (pH 7.0) with 50% TFE (v/v); for R-value, 50% TFE: 20 µM peptide in 10 mM phosphate buffer (pH 7.0) with 50% TFE
Procedure: Conjugates were dissolved in 10 mM phosphate buffer (pH 7.0), either alone or supplemented with 50% TFE (v/v), to a final concentration of 20 µM. CD spectra of all conjugates were recorded from 180–260 nm (0.5 nm intervals) on a J-715 spectropolarimeter (JASCO, Pfungstadt, Germany) in an N2 atmosphere.
To find out more, we performed CD spectroscopy for all peptides solved either in phosphate buffer or in phosphate buffer supplemented with trifluoroethanol (TFE), respectively. All conjugates and sC18 adopted an alpha-helix, when present in phosphate buffer with TFE (Figure S20). On the other hand, when CB-conjugates were solved in phosphate buffer only (Figure 1C), some of them directly formed distinct secondary structures. […] Taking this observation into account, we concluded that the number of CB moieties actually promoted the formation of alpha-helical structures. This effect might be further explained by the helical wheel projection of each conjugate showing that the hydrophobic face of the peptide was clearly enlarged when three or more CB units were attached (see Figure S21). […]

[6] = Critical micelle concentration (CMC) determination by UV-VIS; assay type: physicochemical; conditions: peptide in water, 1–200 µM; UV absorbance at 255 nm plotted against logarithm of peptide concentration, intersection point of two lines
Procedure: Peptide conjugates were dissolved in water and different concentrations (1–200 µM) were prepared. UV-VIS spectra ranging from 200–700 nm were recorded using a 1 cm path length quartz cuvette in a Spectroquant Pharo 300 photometer (Merck, Darmstadt, Germany). The absorbance at 255 nm was plotted against the logarithm of the peptide concentration. The intersection point of two lines was determined as CMC.
Since this effect was obviously dependent on the hydrophobic nature of the conjugates, we were then interested in whether they would also self-assemble and form nanostructures, such as micelles or fibrils. An easy to apply and fast method makes use of changes in spectroscopic properties associated with micelle formation. For this, one measures the UV absorbance at a specific wavelength as a function of the concentration. Because aggregates like micelles and free molecule species contribute to a different extent to the absorbed UV light, an abrupt change of the slope occurs above a certain point. The corresponding concentration is defined as the critical micelle concentration (CMC). We measured the UV-VIS spectra of all CB-sC18 conjugates and observed for all an additional concentration-dependent maximum at 255 nm (Figure 1A,B and Table 2), whereas this maximum was not detected for meta-carborane-1-carboxylic acid (Figure S14) or sC18 alone (Figure S15).
Thus, we hypothesized this maximum as evidence for a possible self-assembly, and by plotting the absorbance at 255 nm against the logarithm of the peptide concentration, we assigned the intersection point as CMC.

[7] = CF-leakage assay, negatively charged LUVs; conditions: 1 µM peptide, 25 °C, 90 min; fluorescence, normalized to Triton x-100; duplicate, n = 2
Procedure: (§1) Large unilamellar vesicles (LUVs) were prepared by dissolving different lipids in CHCl3, to reach the desired compositions (lipids were purchased from Avanti Polar Lipids, Inc., Alabaster, AL, USA). To remove the solvent, the mixture was placed into a round-bottomed flask on ice and the solvent was evaporated under reduced pressure for 20 min at 40 °C and afterwards under vacuum for another 5 min. The dried lipid film was then hydrated with HKS buffer (25 mM HEPES, 150 mM KCl, pH 7.4, 10% sucrose (w/v)), supplemented with 100 mM 5(6)-carboxyfluorescein (CF), and homogenized for 5 min at 45 °C to form liposomes (final concentration: 8 mM). The resulting multilamellar vesicle dispersion underwent 10 freeze/thawing cycles and was passed 21 times through a mini extruder (0.4 µm polycarbonate treck-etch membrane; Avanti Polar Lipids, Inc., Alabaster, AL, USA). External CF was removed by size exclusion chromatography (PD10 column, GE Healthcare, Chicago, IL, USA). Peptides were added to the LUVs and the CF release was monitored by measuring the increased fluorescence intensity on a plate reader (Biotek, Winooski, VT, USA). […]
(§2) Our results thus far inspired us to investigate how the novel CB-conjugates would perform in a lipid environment. […] Both lipid systems were additionally loaded with CF in order to monitor membrane leakage via fluorescence dye outflow.

[8] = CF-leakage assay, zwitterionic LUVs; conditions: 1 µM peptide, 25 °C, 90 min; fluorescence, normalized to Triton x-100; duplicate, n = 2
Procedure: as §1, §2

[9] = 20 µM peptide in 10 mM phosphate buffer (pH 7.0)
[10] = ratio between the molar ellipticity values at 222 and 208 nm

| Substance | Hemolytic activity towards RBCs, 24 h (human red blood cells) | mCherry pDNA transfection (red fluorescent signal) (HeLa cells [1]) | Cellular uptake into HeLa cells, 30 min (HeLa cells [2]) | Cytotoxicity towards HeLa cells, 24 h (HeLa cells [3]) | Effect on cytotoxicity of Dau (co-incubation) (HeLa cells [4]) | % of alpha helix, 50% TFE [5] [%] | % of alpha helix, Phosphate Buffer [5, 9] [%] | R-value, 50% TFE [5, 10] | CMC [6] [µM] | CF release (leakage) from negatively charged LUVs [7] | Cellular uptake into HeLa cells, 2 h (HeLa cells [2]; 2 h) | Effect on daunorubicin activity at 100 nM Dau (HeLa cells [4]; 1 µM peptide with 100 nM Dau) | CF release (leakage) from zwitterionic LUVs [8] | R-value, Phosphate Buffer ([5]; ratio between the molar ellipticity values at 222 and 208 nm, 20 µM peptide in 10 mM phosphate buffer (pH 7.0)) |
| --- | --- | --- | --- | --- | --- | --- | --- | --- | --- | --- | --- | --- | --- | --- |
| K-GLRKRLRKFRNKIKEK [CB1-sC18, sC18 conjugate bearing one meta-carborane (CB) cluster] | did not exhibit any effect | only a weak red signal | internalized nearly to the same extent | lowest cytotoxic effect | did not alter the cytotoxicity of Dau | 50.68 | 5.02 | 0.85 |  |  |  |  |  |  |
| KKKK-GLRKRLRKFRNKIKEK [CB4-sC18, sC18 conjugate bearing four meta-carborane clusters] |  | strong red intracellular signals | highest |  | did not alter the cytotoxicity of Dau | 56.30 | 21.68 | 0.98 | 43.45 ± 1.15 | highest leakage rate | internalized the most | slightly increased | highest leakage rate towards both tested model systems | 0.73 |
